Measurements reported in ChEMBL document CHEMBL4765401, “Synthesis, and biological evaluation of 3,6-diaryl-[1,2,4]triazolo[4,3-a]pyridine analogues as new potent tubulin polymerization inhibitors” (Eur J Med Chem, 2020).
Active and inactive are the calls of the source. No cut-off for these calls is given here.

How the values were obtained:
HeLa [1] = test: Antiproliferative activity against human HeLa cells measured after 48 hrs by MTT assay; assay type: functional, cell-based
HEK293 = test: Cytotoxicity against HEK293 cells measured after 48 hrs by MTT assay; assay type: cell-based; details: Homo sapiens, HEK293, 48 h
T47D = test: Antiproliferative activity against human T47D cells measured after 48 hrs by MTT assay; assay type: functional, cell-based
Sus scrofa = species: Sus scrofa; test: Inhibition of pig brain tubulin polymerization at 10 uM measured at 1 min interval for 20 mins by spectrophotometric method relative to control
MCF7 = test: Antiproliferative activity against human MCF7 cells measured after 48 hrs by MTT assay; assay type: functional, cell-based; details: MCF7, 48 h
A549 = test: Antiproliferative activity against human A549 cells measured after 48 hrs by MTT assay; assay type: functional, cell-based; details: A549, 48 h
[2] = Inhibition of pig brain tubulin polymerization measured at 1 min interval for 20 mins by spectrophotometric method; set-up: species or system Sus scrofa
HeLa [3] = test: Induction of microtubule disruption in human HeLa cells at 12 nM measured after 6 hrs by DAPI staining based immunofluorescence microscopy; assay type: cell-based
HeLa [4] = test: Cell cycle arrest in human HeLa cells assessed as accumulation at G2M phase at 12 nM measured after 24 hrs by propidium iodide staining based flow cytometry (reference value: 11.14%); assay type: functional
HeLa [5] = test: Cell cycle arrest in human HeLa cells assessed as decrease in cdc2 expression measured after 24 hrs by Western blot analysis; assay type: functional, cell-based
HeLa [6] = test: Induction of apoptosis in human HeLa cells assessed as necrotic cells at 12 nM measured after 24 hrs by Annexin V-FITC/propidium iodide staining based flow cytometry (reference value: 0.048%); assay type: functional
HeLa [7] = test: Cell cycle arrest in human HeLa cells assessed as accumulation at G2M phase at 48 nM measured after 24 hrs by propidium iodide staining based flow cytometry (reference value: 11.14%); assay type: functional
HeLa [8] = test: Induction of apoptosis in human HeLa cells assessed as late apoptotic cells at 24 nM measured after 24 hrs by Annexin V-FITC/propidium iodide staining based flow cytometry (reference value: 2.34%); assay type: functional
HeLa [9] = test: Induction of apoptosis in human HeLa cells assessed as early apoptotic cells at 12 nM measured after 24 hrs by Annexin V-FITC/propidium iodide staining based flow cytometry (reference value: 3.97%); assay type: functional
HeLa [10] = test: Cell cycle arrest in human HeLa cells assessed as accumulation at S phase at 24 nM measured after 24 hrs by propidium iodide staining based flow cytometry (reference value: 19.78%); assay type: functional
HeLa [11] = test: Induction of apoptosis in human HeLa cells assessed as increase in PARP cleavage measured after 24 hrs by Western blot analysis; assay type: functional, cell-based
HeLa [12] = test: Cell cycle arrest in human HeLa cells assessed as accumulation at G2M phase at 24 nM measured after 24 hrs by propidium iodide staining based flow cytometry (reference value: 11.14%); assay type: functional
HeLa [13] = test: Cell cycle arrest in human HeLa cells assessed as accumulation at G0/G1 phase at 12 nM measured after 24 hrs by propidium iodide staining based flow cytometry (reference value: 69.08%); assay type: functional
HeLa [14] = test: Cell cycle arrest in human HeLa cells assessed as increase in accumulation at G2M phase measured after 24 hrs by propidium iodide staining based flow cytometry; assay type: functional
HeLa [15] = test: Induction of apoptosis in human HeLa cells assessed as necrotic cells at 48 nM measured after 24 hrs by Annexin V-FITC/propidium iodide staining based flow cytometry (reference value: 0.048%); assay type: functional
HeLa [16] = test: Induction of apoptosis in human HeLa cells assessed as viable cells at 48 nM measured after 24 hrs by Annexin V-FITC/propidium iodide staining based flow cytometry (reference value: 93.6%); assay type: functional; details: read-out: Activity
HeLa [17] = test: Induction of apoptosis in human HeLa cells assessed as necrotic cells at 24 nM measured after 24 hrs by Annexin V-FITC/propidium iodide staining based flow cytometry (reference value: 0.048%); assay type: functional
HeLa [18] = test: Induction of apoptosis in human HeLa cells assessed as early apoptotic cells at 24 nM measured after 24 hrs by Annexin V-FITC/propidium iodide staining based flow cytometry (reference value: 3.97%); assay type: functional
HeLa [19] = test: Cell cycle arrest in human HeLa cells assessed as accumulation at G0/G1 phase at 48 nM measured after 24 hrs by propidium iodide staining based flow cytometry (reference value: 69.08%); assay type: functional
HeLa [20] = test: Induction of apoptosis in human HeLa cells assessed as down regulation of Bcl-2 expression at 12 to 48 nM measured after 24 hrs by Western blot analysis; assay type: functional, cell-based; details: dose 12-48 nM
HeLa [21] = test: Induction of apoptosis in human HeLa cells assessed as late apoptotic cells at 12 nM measured after 24 hrs by Annexin V-FITC/propidium iodide staining based flow cytometry (reference value: 2.34%); assay type: functional
HeLa [22] = test: Cell cycle arrest in human HeLa cells assessed as accumulation at S phase at 48 nM measured after 24 hrs by propidium iodide staining based flow cytometry (reference value: 19.78%); assay type: functional
HeLa [23] = test: Cell cycle arrest in human HeLa cells assessed as decrease in cyclin B1 expression measured after 24 hrs by Western blot analysis; assay type: functional, cell-based
HeLa [24] = test: Induction of apoptosis in human HeLa cells assessed as early apoptotic cells at 48 nM measured after 24 hrs by Annexin V-FITC/propidium iodide staining based flow cytometry (reference value: 3.97%); assay type: functional
HeLa [25] = test: Induction of apoptosis in human HeLa cells measured after 24 hrs by Annexin V-FITC/propidium iodide staining based flow cytometry; assay type: functional, cell-based
HeLa [26] = test: Cell cycle arrest in human HeLa cells assessed as accumulation at G0/G1 phase at 24 nM measured after 24 hrs by propidium iodide staining based flow cytometry (reference value: 69.08%); assay type: functional
HeLa [27] = test: Induction of apoptosis in human HeLa cells assessed as viable cells at 24 nM measured after 24 hrs by Annexin V-FITC/propidium iodide staining based flow cytometry (reference value: 93.6%); assay type: functional; details: read-out: Activity
HeLa [28] = test: Cell cycle arrest in human HeLa cells assessed as accumulation at S phase at 12 nM measured after 24 hrs by propidium iodide staining based flow cytometry (reference value: 19.78%); assay type: functional
HeLa [29] = test: Induction of apoptosis in human HeLa cells assessed as viable cells at 12 nM measured after 24 hrs by Annexin V-FITC/propidium iodide staining based flow cytometry (reference value: 93.6%); assay type: functional; details: read-out: Activity
HeLa [30] = test: Induction of apoptosis in human HeLa cells assessed as late apoptotic cells at 48 nM measured after 24 hrs by Annexin V-FITC/propidium iodide staining based flow cytometry (reference value: 2.34%); assay type: functional

COc1cccc(-c2ccc3nnc(-c4cc(OC)c(OC)c(OC)c4)n3c2)c1
IC50 (HeLa [1]): 0.446 µM

COc1cc(-c2ccc3nnc(-c4ccc(F)cc4)n3c2)cc(OC)c1OC
IC50 (HeLa [1]): > 25 µM

COc1ccc(-c2nnc3ccc(-c4cc(OC)c(OC)c(OC)c4)cn23)cc1
IC50 (HeLa [1]): > 25 µM

COc1ccc(F)cc1-c1ccc2nnc(-c3cc(OC)c(OC)c(OC)c3)n2c1
IC50 (HeLa [1]): 0.651 µM

COc1ccc(-c2nnc3ccc(-c4cc(OC)c(OC)c(OC)c4)cn23)cc1[N+](=O)[O-]
IC50 (HeLa [1]): > 25 µM

COc1cc(-c2nnc3ccc(-c4ccc([N+](=O)[O-])cc4)cn23)cc(OC)c1OC
IC50 (HeLa [1]): 0.023 µM | IC50 (HEK293): > 100 µM

COc1ccccc1-c1ccc2nnc(-c3cc(OC)c(OC)c(OC)c3)n2c1
IC50 (HeLa [1]): 0.084 µM | IC50 (T47D): 31.5 µM | inhibition (Sus scrofa): 16% | IC50 (MCF7): 13.7 µM | IC50 (HEK293): > 100 µM | IC50 (A549): 9.28 µM

COc1ccc(-c2ccc3nnc(-c4cc(OC)c(OC)c(OC)c4)n3c2)cc1[N+](=O)[O-]
IC50 (HeLa [1]): 0.062 µM | IC50 (T47D): > 100 µM | inhibition (Sus scrofa): 36% | IC50 (MCF7): 75.7 µM | IC50 (HEK293): > 100 µM | IC50 (A549): 58.7 µM

COc1cc(-c2nnc3ccc(-c4ccc(O)cc4)cn23)cc(OC)c1OC
IC50 (HeLa [1]): > 25 µM

COc1cc(-c2nnc3ccc(-c4ccc(C)cc4)cn23)cc(OC)c1OC
IC50 (HeLa [1]): 0.034 µM | IC50 (T47D): > 100 µM | inhibition (Sus scrofa): 77% | IC50 [2]: 4.1 µM | IC50 (MCF7): > 100 µM | IC50 (HEK293): > 100 µM | IC50 (A549): 6.26 µM

COc1ccc(-c2nnc3ccc(-c4cc(OC)c(OC)c(OC)c4)cn23)cc1N
IC50 (HeLa [1]): 3.97 µM

COc1cc(C2=NC3=NC(C)=C(C(C)=O)C(c4ccc([N+](=O)[O-])cc4)N3N2)cc(OC)c1OC (configuration not stated)
IC50 (HeLa [1]): 0.75 µM | IC50 (HEK293): 29.9 µM

COc1cc(-c2nnc3ccc(-c4ccccc4OC(F)(F)F)cn23)cc(OC)c1OC
IC50 (HeLa [1]): 22.2 µM

COc1ccc(-c2nnc3ccc(-c4cc(OC)c(OC)c(OC)c4)cn23)cc1O
IC50 (HeLa [1]): 22.1 µM

COc1ccc(-c2ccc3nnc(-c4cc(OC)c(OC)c(OC)c4)n3c2)c(OC)c1
IC50 (HeLa [1]): 7.9 µM

COc1cc(-c2ccc3nnc(-c4ccc(Cl)cc4)n3c2)cc(OC)c1OC
IC50 (HeLa [1]): > 25 µM

COc1cc(-c2nnc3ccc(-c4cccnc4OC)cn23)cc(OC)c1OC
IC50 (HeLa [1]): 20.6 µM

COc1cc(-c2nnc3ccc(-c4ccc(Cl)cc4)cn23)cc(OC)c1OC
IC50 (HeLa [1]): 0.065 µM | IC50 (HEK293): > 100 µM

COc1ccc(/C=C\c2cc(OC)c(OC)c(OC)c2)cc1O [COMBRETASTATIN A4]
IC50 (HeLa [1]): 0.0047 µM | inhibition (Sus scrofa): 79% | Activity (HeLa [3]): Active | IC50 (MCF7): 0.17 µM

COc1cc(-c2ccc3nnc(-c4ccc(Cl)c(Cl)c4)n3c2)cc(OC)c1OC
IC50 (HeLa [1]): > 25 µM

COc1ccc(-c2ccc3nnc(-c4cc(OC)c(OC)c(OC)c4)n3c2)cc1
IC50 (HeLa [1]): 0.194 µM

COc1ccc(-c2ccc3nnc(-c4cc(OC)c(OC)c(OC)c4)n3c2)cc1N
Activity (HeLa [4]): 13.9% | Activity (HeLa [5]): Dose-dependent effect | Activity (HeLa [6]): 0.139% | Activity (HeLa [7]): 92.65% | Activity (HeLa [8]): 7.97% | IC50 (HeLa [1]): 0.012 µM | Activity (HeLa [9]): 5.21% | Activity (HeLa [10]): 22.41% | IC50 (T47D): 27.9 µM | Activity (HeLa [11]): Dose-dependent effect | Activity (HeLa [12]): 26% | Activity (HeLa [13]): 64.07% | Activity (HeLa [14]): Dose-dependent effect | Activity (HeLa [15]): 0.922% | inhibition (Sus scrofa): 81% | Activity (HeLa [3]): Active | viability at 0.048 µM (HeLa [16]): 45.8% | Activity (HeLa [17]): 0.373% | Activity (HeLa [18]): 18.9% | Activity (HeLa [19]): 2.13% | Activity (HeLa [20]): Active | Activity (HeLa [21]): 3.23% | Activity (HeLa [22]): 5.22% | IC50 [2]: 3.4 µM | Activity (HeLa [23]): Dose-dependent effect | IC50 (MCF7): 40.4 µM | Activity (HeLa [24]): 36.4% | Activity (HeLa [25]): Dose-dependent effect | Activity (HeLa [26]): 51.59% | viability at 0.024 µM (HeLa [27]): 72.8% | IC50 (HEK293): > 100 µM | IC50 (A549): 10.4 µM | Activity (HeLa [28]): 22.03% | viability at 0.012 µM (HeLa [29]): 91.4% | Activity (HeLa [30]): 16.9%

COc1cc(-c2nnc3ccc(-c4ccc(Cl)c(Cl)c4)cn23)cc(OC)c1OC
IC50 (HeLa [1]): 0.347 µM

COc1ccc(-c2ccc3nnc(-c4cc(OC)c(OC)c(OC)c4)n3c2)cc1OC
IC50 (HeLa [1]): 0.119 µM | IC50 (T47D): > 100 µM | inhibition (Sus scrofa): 68% | IC50 [2]: 11.3 µM | IC50 (MCF7): > 100 µM | IC50 (A549): 87.1 µM

COc1cc(-c2nnc3ccc(-c4ccc5ccccc5c4)cn23)cc(OC)c1OC
IC50 (HeLa [1]): > 25 µM

COc1cc(-c2ccc3nnc(-c4ccc(C)cc4)n3c2)cc(OC)c1OC
IC50 (HeLa [1]): > 25 µM

COc1ccc(-c2ccc3nnc(-c4cc(OC)c(OC)c(OC)c4)n3c2)cc1O
IC50 (HeLa [1]): 0.045 µM | IC50 (T47D): > 100 µM | inhibition (Sus scrofa): 14% | IC50 (MCF7): > 100 µM | IC50 (HEK293): > 100 µM | IC50 (A549): 17.8 µM

COc1cc(-c2nnc3ccc(-c4ccc(F)cc4)cn23)cc(OC)c1OC
IC50 (HeLa [1]): 0.025 µM | IC50 (T47D): 76 µM | inhibition (Sus scrofa): 18% | IC50 (MCF7): > 100 µM | IC50 (HEK293): > 100 µM | IC50 (A549): 78.6 µM

COc1cc(-c2nnc3ccc(-c4ccc(C(F)(F)F)cc4)cn23)cc(OC)c1OC
IC50 (HeLa [1]): > 25 µM

COc1ccc(-c2ccc3nnc(-c4cc(OC)c(OC)c(OC)c4)n3c2)c(O)c1
IC50 (HeLa [1]): > 25 µM

COc1cc(F)ccc1-c1ccc2nnc(-c3cc(OC)c(OC)c(OC)c3)n2c1
IC50 (HeLa [1]): 0.153 µM
